The text below walks through data of patent US8618303B2, “Pyrrolidine derivatives” (Hoffmann-La Roche Inc., priority 2011, dated 2013).

For orientation: Ki means a dissociation constant, usually derived from enzyme kinetics or from competition with a known ligand.

For one assay, the target named is human NK3 receptor (Homo sapiens (Human), UniProt P29371). The assay is described as follows: [3H]SR142801 competition binding assay.
Sequence of human NK3 receptor (P29371 whole entry): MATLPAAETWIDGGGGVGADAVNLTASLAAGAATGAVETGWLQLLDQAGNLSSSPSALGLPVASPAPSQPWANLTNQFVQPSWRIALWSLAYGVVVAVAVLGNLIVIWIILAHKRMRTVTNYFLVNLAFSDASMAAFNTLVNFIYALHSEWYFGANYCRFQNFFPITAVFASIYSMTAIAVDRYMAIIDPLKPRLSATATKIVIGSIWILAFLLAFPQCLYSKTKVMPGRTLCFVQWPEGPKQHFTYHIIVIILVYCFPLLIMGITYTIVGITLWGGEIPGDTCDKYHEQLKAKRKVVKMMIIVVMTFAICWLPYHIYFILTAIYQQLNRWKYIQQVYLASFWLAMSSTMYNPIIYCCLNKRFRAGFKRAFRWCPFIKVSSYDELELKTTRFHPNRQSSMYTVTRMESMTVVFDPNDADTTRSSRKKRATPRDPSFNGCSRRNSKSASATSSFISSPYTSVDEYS
Details: not given
The protocol: hNK3 receptor binding experiment were performed using [^3H]SR142801 (Catalog No. TRK1035, specific activity: 74.0 Ci/mmol, Amersham, GE Healthcare UK limited, Buckinghamshire, UK) and membrane isolated from HEK293 cells transiently expressing recombinant human NK3 receptor. After thawing, the membrane homogenates were centrifuged at 48,000×g for 10 min at 4° C., the pellets were resuspended in the 50 mM Tris-HCl, 4 mM MnCl2, 1 μM phosphoramidon, 0.1% BSA binding buffer at pH 7.4 to a final assay concentration of 5 μg protein/well. […] At the end of the incubation, membranes were filtered onto unitfilter (96-well white microplate with bonded GF/C filter preincubated 1 h in 0.3% PEI+0.3% BSA, Packard BioScience, Meriden, Conn.) with a Filtermate 196 harvester (Packard BioScience) and washed 4 times with ice-cold 50 mM Tris-HCl, pH 7.4 buffer. Nonspecific binding was measured in the presence of 10μM SB222200 for both radioligands. The radioactivity on the filter was counted (5 min) on a Packard Top-count microplate scintillation counter with quenching correction after addition of 45 μl of microscint 40 (Canberra Packard S.A., Ziirich, Switzerland) and shaking for 1 h. Inhibition curves were fitted according to the Hill equation: y=100/(1+(x/IC50), where nH=slope factor using Excel-fit 4 software (Microsoft). IC50 values were derived from the inhibition curve and the affinity constant (Ki) values were calculated using the Cheng-Prussoff equation Ki =IC50/(1+[L]/KD) where [L] is the concentration of radioligand and KD is its dissociation constant at the receptor, derived from the saturation isotherm. All experiments were performed in duplicate and the mean±standard error (SEM) of the individual Ki values was calculated.
In the case of `CN(C(=O)Oc1ccc(F)cc1)[C@@]1(C)CN(C(=O)C2CCN(C3CCCCC3)CC2)C[C@@H]1c1ccc(Cl)cc1` (racemic) [Example 2, rac-[(3R,4S)-4-(4-Chloro-phenyl)-1-(1-cyclohexyl-piperidine-4-carbonyl)-3-methyl-pyrrolidin-3-yl]-methyl-carbamic acid 4-fluoro-phenyl ester], the affinity, expressed as Ki, was 0.0201 µM.
On the same count and under the same terms, to `CN(C(=O)Oc1ccc(F)cc1)[C@@]1(C)CN(C(=O)C2CCN(c3ccc(C#N)cn3)CC2)C[C@@H]1c1ccc(Cl)cc1` (racemic) [Example 9, rac-[(3R,4S)-4-(4-Chloro-phenyl)-1-(5′-cyano-3,4,5,6-tetrahydro-2H-[1,2′]bipyridinyl-4-carbonyl)-3-methyl-pyrrolidin-3-yl]-methyl-carbamic acid 4-fluoro-phenyl ester] belongs 0.0021 µM; to `CN(C(=O)Oc1ccc(F)cc1)[C@@]1(C)CN(C(=O)C2CCN(c3ccc(F)cn3)CC2)C[C@@H]1c1ccc(Cl)cc1` (racemic) [Example 12, rac-[(3R,4S)-4-(4-Chloro-phenyl)-1-(5′-fluoro-3,4,5,6-tetrahydro-2H-[1,2′]bipyridinyl-4-carbonyl)-3-methyl-pyrrolidin-3-yl]-methyl-carbamic acid 4-fluoro-phenyl ester], 0.0076 µM; to `CN(C(=O)Oc1ccc(F)cc1)[C@@]1(C)CN(C(=O)c2ccc(-c3ccc(F)cc3)cc2)C[C@@H]1c1ccc(Cl)cc1` (racemic) [Example 16, rac-[(3R,4S)-4-(4-Chloro-phenyl)-1-(4′-fluoro-biphenyl-4-carbonyl)-3-methyl-pyrrolidin-3-yl]-methyl-carbamic acid 4-fluoro-phenyl ester], 0.3 µM.
The same measure, in the same setting: the result for `CN(C(=O)Oc1ccc(F)cc1)[C@@H]1CN(C(=O)C2CCN(C(=O)C3(C)CC3)CC2)C[C@@]1(C)c1ccc(Cl)cc1` (racemic) [Example 21, rac-{(3S,4R)-4-(4-Chloro-phenyl)-4-methyl-1-[1-(1-methyl-cyclopropanecarbonyl)-piperidine-4-carbonyl]-pyrrolidin-3-yl}-methyl-carbamic acid 4-fluoro-phenyl ester] reads 0.0319 µM.

The assay is the same for the next values; noted with them: membranes from HEK293 cells transiently expressing recombinant human NK3 receptor; [3H]SR142801; Ki from IC50 by Cheng-Prussoff; read-out: Ki (uM) hNK3.
In the case of `CC(C)C(=O)N1CCC(C(=O)N2C[C@H](c3ccc(Cl)cc3)[C@@](C)(N(C)C(=O)Oc3ccc(F)cc3)C2)CC1` (racemic) [Example 1, rac-[(3R,4S)-4-(4-Chloro-phenyl)-1-(1-isobutyryl-piperidine-4-carbonyl)-3-methyl-pyrrolidin-3-yl]-methyl-carbamic acid 4-fluoro-phenyl ester], the Ki stood at 0.0105 µM.
Turning to `CN(C(=O)Oc1ccc(F)cc1)[C@@]1(C)CN(C(=O)c2ccc(C#N)cc2)C[C@@H]1c1ccc(Cl)cc1` (racemic) [Example 3, rac-[(3R,4S)-4-(4-Chloro-phenyl)-1-(4-cyano-benzoyl)-3-methyl-pyrrolidin-3-yl]-methyl-carbamic acid 4-fluoro-phenyl ester], the Ki stood at 0.0678 µM.
With `CC(=O)N1CCC(C(=O)N2C[C@H](c3ccc(Cl)cc3)[C@@](C)(N(C)C(=O)Oc3ccc(F)cc3)C2)CC1` (racemic) [Example 4, rac-[(3R,4S)-1-(1-Acetyl-piperidine-4-carbonyl)-4-(4-chloro-phenyl)-3-methyl-pyrrolidin-3-yl]-methyl-carbamic acid 4-fluoro-phenyl ester], the Ki stood at 0.0116 µM.
The same measure, in the same setting: to `CN(C(=O)Oc1ccc(F)cc1)[C@@]1(C)CN(C(=O)C2CCOCC2)C[C@@H]1c1ccc(Cl)cc1` (racemic) [Example 5, rac-[(3R,4S)-4-(4-Chloro-phenyl)-3-methyl-1-(tetrahydro-pyran-4-carbonyl)-pyrrolidin-3-yl]-methyl-carbamic acid 4-fluoro-phenyl ester] belongs 0.0864 µM; to `Cc1cc(C(=O)N2C[C@H](c3ccc(Cl)cc3)[C@@](C)(N(C)C(=O)Oc3ccc(F)cc3)C2)cnn1` (racemic) [Example 6, rac-[(3R,4S)-4-(4-Chloro-phenyl)-3-methyl-1-(6-methyl-pyridazine-4-carbonyl)-pyrrolidin-3-yl]-methyl-carbamic acid 4-fluoro-phenyl ester], 0.0649 µM.
Same read-out and setting: to `CN(C(=O)Oc1ccc(F)cc1)[C@@]1(C)CN(C(=O)C2CCN(C(=O)C3(C)CC3)CC2)C[C@@H]1c1ccc(Cl)cc1` (racemic) [Example 7, rac-{(3R,4S)-4-(4-Chloro-phenyl)-3-methyl-1-[1-(1-methyl-cyclopropanecarbonyl)-piperidine-4-carbonyl]-pyrrolidin-3-yl}-methyl-carbamic acid 4-fluoro-phenyl ester] belongs 0.005 µM.
On the same count and under the same terms, to `Cc1ccc(N2CCC(C(=O)N3C[C@H](c4ccc(Cl)cc4)[C@@](C)(N(C)C(=O)Oc4ccc(F)cc4)C3)CC2)nc1` (racemic) [Example 8, rac-[(3R,4S)-4-(4-Chloro-phenyl)-3-methyl-1-(5′-methyl-3,4,5,6-tetrahydro-2H-[1,2′]bipyridinyl-4-carbonyl)-pyrrolidin-3-yl]-methyl-carbamic acid 4-fluoro-phenyl ester] belongs 0.013 µM; to `CN(C(=O)Oc1ccc(F)cc1)[C@@]1(C)CN(C(=O)C2CCN(c3ccc(C#N)cc3)CC2)C[C@@H]1c1ccc(Cl)cc1` (racemic) [Example 10, rac-{(3R,4S)-4-(4-Chloro-phenyl)-1-[1-(4-cyano-phenyl)-piperidine-4-carbonyl]-3-methyl-pyrrolidin-3-yl}-methyl-carbamic acid 4-fluoro-phenyl ester], 0.0038 µM.
For the compound `CC(=O)c1ccc(N2CCC(C(=O)N3C[C@H](c4ccc(Cl)cc4)[C@@](C)(N(C)C(=O)Oc4ccc(F)cc4)C3)CC2)nc1` (racemic) [Example 11, rac-[(3R,4S)-1-(5′-Acetyl-3,4,5,6-tetrahydro-2H-[1,2′]bipyridinyl-4-carbonyl)-4-(4-chloro-phenyl)-3-methyl-pyrrolidin-3-yl]-methyl-carbamic acid 4-fluoro-phenyl ester], the Ki was 0.0045 µM.
Take `CN(C(=O)Oc1ccc(F)cc1)[C@@]1(C)CN(C(=O)C2CCN(c3ccc(Cl)cn3)CC2)C[C@@H]1c1ccc(Cl)cc1` (racemic) [Example 13, rac-[(3R,4S)-4-(4-Chloro-phenyl)-1-(5′-chloro-3,4,5,6-tetrahydro-2H-[1,2′]bipyridinyl-4-carbonyl)-3-methyl-pyrrolidin-3-yl]-methyl-carbamic acid 4-fluoro-phenyl ester]: the Ki came out at 0.01 µM.
The same measure, in the same setting: to `CN(C(=O)Oc1ccc(F)cc1)[C@@]1(C)CN(C(=O)c2ccc(C#N)nc2)C[C@@H]1c1ccc(Cl)cc1` (racemic) [Example 14, rac-[(3R,4S)-4-(4-Chloro-phenyl)-1-(6-cyano-pyridine-3-carbonyl)-3-methyl-pyrrolidin-3-yl]-methyl-carbamic acid 4-fluoro-phenyl ester] belongs 0.0774 µM; to `CN(C(=O)Oc1ccc(F)cc1)[C@@]1(C)CN(C(=O)C2CCN(c3ccc(C(F)(F)F)cn3)CC2)C[C@@H]1c1ccc(Cl)cc1` (racemic) [Example 15, rac-[(3R,4S)-4-(4-Chloro-phenyl)-3-methyl-1-(5′-trifluoromethyl-3,4,5,6-tetrahydro-2H-[1,2′]bipyridinyl-4-carbonyl)-pyrrolidin-3-yl]-methyl-carbamic acid 4-fluoro-phenyl ester], 0.0115 µM; to `Cc1nc(-c2ccc(C(=O)N3C[C@H](c4ccc(Cl)cc4)[C@@](C)(N(C)C(=O)Oc4ccc(F)cc4)C3)cc2)no1` (racemic) [Example 17, rac-{(3R,4S)-4-(4-Chloro-phenyl)-3-methyl-1-[4-(5-methyl-[1,2,4]oxadiazol-3-yl)-benzoyl]-pyrrolidin-3-yl}-methyl-carbamic acid 4-fluoro-phenyl ester], 0.0354 µM.
Still for that read-out and setting: the result for `CN(C(=O)Oc1ccc(F)cc1)[C@@]1(C)CN(C(=O)C2CCN(c3ccc(C#N)nc3)CC2)C[C@@H]1c1ccc(Cl)cc1` (racemic) [Example 18, rac-[(3R,4S)-4-(4-Chloro-phenyl)-1-(6′-cyano-3,4,5,6-tetrahydro-2H-[1,3′]bipyridinyl-4-carbonyl)-3-methyl-pyrrolidin-3-yl]-methyl-carbamic acid 4-fluoro-phenyl ester] reads 0.0028 µM; that for `COc1ccc(N2CCC(C(=O)N3C[C@H](c4ccc(Cl)cc4)[C@@](C)(N(C)C(=O)Oc4ccc(F)cc4)C3)CC2)nn1` (racemic) [Example 19, rac-{(3R,4S)-4-(4-Chloro-phenyl)-1-[1-(6-methoxy-pyridazin-3-yl)-piperidine-4-carbonyl]-3-methyl-pyrrolidin-3-yl}-methyl-carbamic acid 4-fluoro-phenyl ester], 0.0129 µM.
Same read-out and setting: the result for `CN(C(=O)Oc1ccc(F)cc1)[C@@]1(C)CN(C(=O)c2ccc(N3CCCCC3=O)cc2)C[C@@H]1c1ccc(Cl)cc1` (racemic) [Example 20, rac-{(3R,4S)-4-(4-Chloro-phenyl)-3-methyl-1-[4-(2-oxo-piperidin-1-yl)-benzoyl]-pyrrolidin-3-yl}-methyl-carbamic acid 4-fluoro-phenyl ester] reads 0.276 µM.
